From patent US20030013684A1, “Agricultural composition” (priority 2001, published 2003)

What was measured:
[1] = Coprecipitation of a chemical substance with a tannin or chelating agent and a metal salt in water; type: physicochemical; conditions: (+)-catechin 60 mg and lead acetate 60 mg
Protocol: After stirring for a while, a coprecipitate was formed.
In a similar manner, for the following combinations of a chemical substance and a metal salt, a proportion of the chemical substance taken into a coprecipitate was determined.
Chemical substance: (B) acephate, (C) acetamiprid, (D) urea;
Chelating agent: (Q) sodium ethylenediamine tetraacetate, (R) aminotrimethylenephosphonic acid;
Metal salt: (b) potassium acetate, (c) manganese acetate, (d) aluminum acetate, (e) nickel acetate, (f) cobalt acetate, (g) calcium acetate, (h) magnesium acetate, (i) magnesium chloride and (j) sodium acetate.
After completion of dissolving, the solution was analyzed for dinotefuran. […] After stirring for a while, a coprecipitate was formed. The supernatant was analyzed for dinotefuran A to determine a proportion of dinotefuran taken into the coprecipitate.

[2] = cited from earlier work

SMILES | proportion of dinotefuran taken into the coprecipitate [1] [%] | water solubility [2] [ppm]
CNC(=N[N+](=O)[O-])NCC1CCOC1 (racemic) [dinotefuran, (RS)-1-methyl-2-nitro-3-[(3-tetrahydrofuryl)methyl]guanidine] | 41 | 
CCOP(=O)(OCC)O/C(=C\Cl)c1ccc(Cl)cc1Cl [CVP, Chlorfenvin-phos] |  | 1500
CCSCc1ccccc1OC(=O)NC [etiofencarb] |  | 1800
C/C(=N\C#N)N(C)Cc1ccc(Cl)nc1 [acetamiprid] |  | 4200
COc1nc(NC(C)C)nc(NC(C)C)n1 [promethone] |  | 750
